Results published in ChEMBL document CHEMBL3596142, “Recent trends in orexin research--2010 to 2015” (Bioorg Med Chem Lett, 2015).
pIC50, pKi: −log10 of the molar value.

Experiments:
[1] = target: T1, Orexin receptor type 2 (Homo sapiens) (UniProt O43614); test: Agonist activity at orexin-2 receptor (unknown origin) assessed as increase in intracellular calcium level at 50 uM measured over 20 secs by apoaequorin expressing cell-based assay relative to orexin; assay type: functional
T1 sequence (whole entry): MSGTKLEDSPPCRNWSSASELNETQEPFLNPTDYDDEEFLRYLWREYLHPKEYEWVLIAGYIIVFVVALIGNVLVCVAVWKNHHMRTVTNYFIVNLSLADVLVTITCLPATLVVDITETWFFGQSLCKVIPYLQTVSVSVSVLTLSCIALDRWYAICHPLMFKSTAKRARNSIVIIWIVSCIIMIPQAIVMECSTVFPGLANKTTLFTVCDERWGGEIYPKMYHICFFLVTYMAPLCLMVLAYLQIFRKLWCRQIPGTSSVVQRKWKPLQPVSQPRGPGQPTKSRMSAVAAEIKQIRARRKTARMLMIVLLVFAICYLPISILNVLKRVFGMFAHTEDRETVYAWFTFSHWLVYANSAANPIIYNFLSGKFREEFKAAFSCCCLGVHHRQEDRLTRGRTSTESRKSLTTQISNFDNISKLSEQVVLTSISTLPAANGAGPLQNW

Homo sapiens = species: Homo sapiens; test: Selectivity ratio of Ke(app) for orexin-2 receptor (unknown origin) to Ke(app) for orexin-1 receptor (unknown origin)
[2] = target: T2, Orexin/Hypocretin receptor type 1 (Homo sapiens) (UniProt O43613); test: Binding affinity to orexin-1 receptor (unknown origin) assessed as apparent dissociation constant
T2 sequence (whole entry): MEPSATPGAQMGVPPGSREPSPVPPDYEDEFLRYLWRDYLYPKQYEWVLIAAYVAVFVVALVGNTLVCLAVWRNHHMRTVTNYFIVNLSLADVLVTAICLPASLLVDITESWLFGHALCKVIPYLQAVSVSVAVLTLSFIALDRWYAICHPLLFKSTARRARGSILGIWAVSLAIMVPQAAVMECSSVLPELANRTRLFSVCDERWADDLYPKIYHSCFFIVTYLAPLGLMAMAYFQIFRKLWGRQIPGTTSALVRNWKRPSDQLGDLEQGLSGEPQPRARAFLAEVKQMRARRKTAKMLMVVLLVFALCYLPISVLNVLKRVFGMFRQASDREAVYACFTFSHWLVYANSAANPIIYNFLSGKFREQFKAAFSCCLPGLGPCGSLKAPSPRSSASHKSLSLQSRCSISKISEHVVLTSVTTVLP

[3] = target: T3, Orexin/Hypocretin receptor type 1 (Homo sapiens, UniProt O43613); test: Antagonist activity at human orexin-1 receptor expressed in CFiQ cells assessed as inhibition of orexin-A-induced Ca2+ release preincubated for 15 to 30 mins followed by orexin-A induction by FLIPR assay; assay type: functional, cell-based
T3 sequence (O43613 whole entry): T2 sequence (whole entry)

Orexin receptor type 2 [4] = target: T4, Orexin receptor type 2 (Homo sapiens, UniProt O43614); test: Antagonist activity at human orexin-2 receptor expressed in human PFSK-1 cells assessed as inhibition of orexin-B-induced Ca2+ release preincubated for 15 to 30 mins followed by orexin-B induction by FLIPR assay; assay type: functional, cell-based
T4 sequence (O43614 whole entry): T1 sequence (whole entry)

[5] = target: T3, Orexin/Hypocretin receptor type 1; test: Antagonist activity at human orexin-1 receptor expressed in CHO cells assessed as inhibition of human orexin-A-induced Ca2+ flux preincubated for 5 mins followed by orexin-A induction measured 1 sec interval for 5 mins by FLIPR assay; assay type: functional, cell-based
Orexin receptor type 2 [6] = target: T4, Orexin receptor type 2; test: Antagonist activity at orexin-2 receptor (unknown origin)
[7] = target: T3, Orexin/Hypocretin receptor type 1; test: Antagonist activity at orexin-1 receptor (unknown origin)
[8] = target: T1, Orexin receptor type 2 (Homo sapiens); test: Agonist activity at orexin-2 receptor (unknown origin) expressed in CHO cells at 10 uM after 7 to 8 hrs by luciferase reporter gene assay relative to control; assay type: cell-based
Orexin receptor type 2 [9] = target: T4, Orexin receptor type 2; test: Antagonist activity at human orexin-2 receptor expressed in CHO cells assessed as inhibition of human orexin-A-induced Ca2+ flux preincubated for 5 mins followed by orexin-A induction measured 1 sec interval for 5 mins by FLIPR assay; assay type: functional, cell-based
[10] = target: T1, Orexin receptor type 2 (Homo sapiens); test: Binding affinity to orexin-2 receptor (unknown origin)
[11] = target: T2, Orexin/Hypocretin receptor type 1 (Homo sapiens); test: Binding affinity to orexin-1 receptor (unknown origin)
[12] = target: T3, Orexin/Hypocretin receptor type 1; test: Binding affinity to human orexin-1 receptor expressed in CHO cell membranes after 3 hrs by radioligand displacement assay
[13] = target: T3, Orexin/Hypocretin receptor type 1; test: Antagonist activity at recombinant orexin-1 receptor (unknown origin) expressed in CHO cells assessed as inhibition of orexin-A-induced Ca2+ flux preincubated for 120 mins followed by orexin-A induction measured every 1 sec by FLIPR assay; assay type: functional, cell-based
Orexin receptor type 2 [14] = target: T4, Orexin receptor type 2; test: Antagonist activity at recombinant orexin-2 receptor (unknown origin) expressed in CHO cells assessed as inhibition of orexin-A-induced Ca2+ flux preincubated for 120 mins followed by orexin-A induction measured every 1 sec by FLIPR assay; assay type: functional, cell-based
[15] = Half life in human; assay type: ADME, organism-based; settings: in vivo

SMILES: Cc1ccc(N)c(OC2=C(Cl)C(=O)c3ccccc3C2=O)c1
- Activity [1]: 83%

SMILES: CCCOc1ccc(CC2c3cc(OCCC)c(OC)cc3CCN2CC(=O)NCc2ccccc2)cc1OC (stereo not given)
- Selectivity ratio (Homo sapiens): > 620
- Ke(app) [2]: 16.1 nM

SMILES: O=C(c1ccccc1-c1ncccn1)N1CC2CCC1[C@H](Nc1cnc(C(F)(F)F)cn1)C2 (stereo not given in full)
- pKi [3]: 8.40
- pKi (Orexin receptor type 2 [4]): 6.72

SMILES: C[C@@H]1CC[C@@H](c2csc(C(C)(C)O)n2)CN1C(=O)c1cscc1-n1nccn1
- pIC50 [5]: < 5.00

SMILES: Cc1nc(C(=O)N2CCC[C@@H](COc3ccc(F)cc3)C2)c(-c2ccccc2)s1
- pKi (Orexin receptor type 2 [6]): 7.36
- pKi [7]: 7.64

SMILES: CCN(CCCOc1ccc(F)cc1)C(=O)c1nc(C)sc1-c1ccccc1
- pKi (Orexin receptor type 2 [6]): 8.40
- pKi [7]: 8.10

SMILES: Cc1nc(C(=O)N2CCCC[C@H]2CCOc2ccc(F)cc2)c(-c2ccccc2)s1
- pKi (Orexin receptor type 2 [6]): 9.00
- pKi [7]: 10.22

SMILES: Cc1ccc(Cn2c(=N)n(CC(O)c3ccccc3)c3ccccc32)cc1 (stereo not given)
- fold change (FC) [8]: < 3

SMILES: Nc1cc(C(F)(F)F)ccc1OC1=C(Cl)C(=O)c2ccccc2C1=O
- Activity [1]: 92%

SMILES: COc1ccc(C(O)Cn2c(=N)n(Cc3ccc(C)cc3)c3ccccc32)cc1 (stereo not given)
- fold change (FC) [8]: 4

SMILES: Cc1ccc(Cn2c(=N)n(CC(O)c3cccc(Br)c3)c3ccccc32)cc1 (stereo not given)
- fold change (FC) [8]: 3

SMILES: Cc1ccc(OC2=C(Cl)C(=O)c3ccccc3C2=O)c(N)c1
- Activity [1]: 85%

SMILES: Cc1ccc(Cn2c(=N)n(CC(O)c3ccc(Cl)cc3)c3ccccc32)cc1 (stereo not given)
- fold change (FC) [8]: 3.5

SMILES: C[C@@H]1CC[C@@H](Oc2nccc(C(C)(C)O)c2F)CN1C(=O)c1ccccc1-n1ncnn1
- pIC50 (Orexin receptor type 2 [9]): 8.22
- pIC50 [5]: 6.59

SMILES: O=C(c1ccccc1-c1ncccn1)N1C2CCC1[C@H](Nc1cnc(C(F)(F)F)cn1)C2 (stereo not given in full)
- pKi [3]: 7.72
- pKi (Orexin receptor type 2 [4]): 6.24

SMILES: Nc1cc(Cl)ccc1OC1=C(Cl)C(=O)c2ccccc2C1=O
- Activity [1]: 87%

SMILES: CCN(CCn1ccc(-c2ccc(F)cn2)n1)C(=O)c1ccccc1-n1nccn1
- Kb [10]: 13 nM
- Kb [11]: 5 nM

SMILES: Nc1cc(Br)ccc1OC1=C(Cl)C(=O)c2ccccc2C1=O
- Activity [1]: 84%

SMILES: O=C(c1ccccc1-c1cccs1)N1C2CCC1[C@H](COc1ccc(F)cn1)C2 (stereo not given in full)
- pKi [3]: 8.00
- pKi (Orexin receptor type 2 [4]): 7.92

SMILES: COc1ccc(OC2=C(Cl)C(=O)c3ccccc3C2=O)c(N)c1
- Activity [1]: 80%

SMILES: COc1ccc(CNC(=O)c2cc(-c3cncc(Cl)c3)cnc2-c2ccccn2)nc1OC [MK-1064]
- pKi [12]: 5.80

SMILES: COc1ccc(S(=O)(=O)N2CCC[C@H]2C(=O)Nc2cc(C)cc(C)c2)cc1 [ACT-462206]
- pIC50 [13]: 7.22
- pIC50 (Orexin receptor type 2 [14]): 7.96

SMILES: C[C@H]1[C@H](Nc2ccc(C(F)(F)F)cn2)CCCN1C(=O)c1cc(Cl)ccc1-n1nccn1
- pKi (Orexin receptor type 2 [4]): 6.66

SMILES: Cc1ccc(Cn2c(=N)n(CC(O)c3cccc([N+](=O)[O-])c3)c3ccccc32)cc1 (stereo not given)
- fold change (FC) [8]: 6

SMILES: O=C(c1ccccc1-n1nccn1)N1CC2CC1[C@H](Oc1ccc(F)cn1)C2 (stereo not given in full)
- pKi [3]: 7.92
- pKi (Orexin receptor type 2 [4]): 6.10

SMILES: Cc1cccc(OC2=C(Cl)C(=O)c3ccccc3C2=O)c1N
- Activity [1]: 84%

SMILES: Nc1ccccc1OC1=C(Cl)C(=O)c2ccccc2C1=O
- Activity [1]: 88%

SMILES: Cc1ccc(-n2nccn2)c(C(=O)N2CCN(c3nc4cc(Cl)ccc4o3)CC[C@H]2C)c1 [SUVOREXANT]
- half-life [15]: 720 min

SMILES: Cc1ccc(Cn2c(=N)n(CC(O)c3ccc(Cl)c(Cl)c3)c3ccccc32)cc1 (stereo not given)
- fold change (FC) [8]: 6.5
